Data: PubChem BioAssay (NCI)
Where “and” joins values, the source holds several entries; their conditions need not be identical. Equal entries are not always repeated.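 Growth conditions: 96-well plates. Treatment: test compound, 48 hours, 5 concentrations. Analysis: linear interpolation between bracketing concentrations; unreached endpoints set to highest concentration. The concentration for 50% growth inhibition is given as GI50. Definition used: TGI = concentration required for complete inhibition of growth.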

Legend:
Assay in all cases: NCI anticancer screen, dose series, 48 h
OVCAR-3 ovarian = system: OVCAR-3 ovarian
PC-3 prostate = system: PC-3 prostate
K-562 leukemia = system: K-562 leukemia
T-47D breast = system: T-47D breast
DU-145 prostate = system: DU-145 prostate
NCI/ADR-RES ovarian = system: NCI/ADR-RES ovarian
COLO 205 colon = system: COLO 205 colon
A549 NSCLC = system: A549 NSCLC
MDA-MB-435 = system: MDA-MB-435
RPMI-8226 leukemia = system: RPMI-8226 leukemia

SMILES | GI50 (OVCAR-3 ovarian) [µM] | TGI (OVCAR-3 ovarian) | GI50 (PC-3 prostate) [µM] | TGI (PC-3 prostate) [µM] | GI50 (K-562 leukemia) [µM] | TGI (K-562 leukemia) | GI50 (T-47D breast) [µM] | TGI (T-47D breast) | GI50 (DU-145 prostate) | TGI (DU-145 prostate) | GI50 (NCI/ADR-RES ovarian) [µM] | TGI (NCI/ADR-RES ovarian) [µM] | GI50 (COLO 205 colon) [µM] | TGI (COLO 205 colon) | GI50 (A549 NSCLC) | TGI (A549 NSCLC) | GI50 (MDA-MB-435) [µM] | TGI (MDA-MB-435) [µM] | GI50 (RPMI-8226 leukemia) | TGI (RPMI-8226 leukemia)
CCOC(=O)Cc1csc(Nc2nc(O)c(C3=c4ccccc4=NC3=O)s2)n1 | 26.9 | 61.5 µM | 30.8 | > 100 | 37.2 | > 100 µM | 54.4 | > 100 µM | 24.6 µM | 56.7 µM | 55.6 | > 100 | 47.1 | > 100 µM | 32.4 µM | > 100 µM | 40.9 | > 100 | 20.9 µM | 53.2 µM
COc1c(O)cc2c(c1CC=C(C)C)OC(=O)c1c(cc(O)c(CC=C(C)C)c1O)O2 | 3.83 | 7.2 µM | 4.87 | 9.7 | 5.91 | 17 µM | 4.48 | 8.72 µM | 4.18 µM | 7.62 µM | 4.03 | 8.69 | 4.51 | 8.45 µM | 4.26 µM | 8.28 µM | 4.11 | 7.94 | 5.95 µM | 15.7 µM
CC(=O)N[C@@H](Cc1ccc(OP(=O)(O)O)cc1)C(=O)N[C@H]1CCC(=O)N2CCC[C@@H](C(=O)NCc3cccc4ccccc34)N2C1=O | > 25 | > 25 µM | > 25 | > 25 | > 25 | > 25 µM | > 25 | > 25 µM | > 25 µM | > 25 µM | > 25 | > 25 | > 25 | > 25 µM | > 25 µM | > 25 µM | > 25 | > 25 | > 25 µM | > 25 µM
N#CC1(C#N)C2C=CC(C3CC=CC32)C1(C#N)C#N (stereo not drawn) | 6.81 | 5.1 µM and 14.5 µM | – | 16.2 | 1.01 | 5.83 µM and 3.38 µM | 2.78 | 8.65 µM and 13.2 µM | – | 16.7 µM | – | 33.4 | 5.5 | 4.3 µM and 13.5 µM | – | 21 µM | 9.78 | 18.8 | 8.86 µM | 4.89 µM and 21.1 µM
CC(C)[C@]12O[C@H]1[C@@H]1O[C@]13[C@]1(O[C@H]1C[C@H]1C4=C(CC[C@@]13C)C(=O)OC4)[C@@H]2OC(=O)OC(C)(C)C | 0.0171 | 0.883 µM | 0.0238 | > 41.3 | 0.0199 | > 100 µM | 0.027 | > 100 µM | 0.0204 µM | > 100 µM | 0.0286 | 10.5 | 0.014 | 0.0319 µM | 0.0206 µM | > 100 µM | 0.0122 | 0.0478 | 0.0195 µM | > 42.5 µM
CSc1nc(SC)c2cnn(-c3ccnc4cc(Cl)ccc34)c2n1 | 6.87 | > 31.2 µM | > 82.3 | > 100 | > 61 | > 100 µM | > 100 | > 100 µM | 42.6 µM | > 67 µM | 51.2 | > 100 | > 100 | > 100 µM | > 85.7 µM | > 100 µM | 10.7 | > 100 | > 55.7 µM | > 100 µM
O=C(NCCCNc1cc(-c2cn(-c3ccccc3)nc2-c2cccc(O)c2)ccn1)c1ccc(F)cc1 | 4.03 | 40.7 µM | 2.81 | 15.7 | 1.93 | > 100 µM | 1.14 | 5.11 µM | 4.63 µM | 53.4 µM | 2.2 | 5.75 | 1.6 | 3.34 µM | 3.65 µM | 20.8 µM | 1.74 | 4.44 | 1.94 µM | 5.55 µM
CCOC(=O)c1cc2c(OC)cc(OC)cc2oc1=O | – | > 100 µM | – | > 100 | – | > 100 µM | – | > 100 µM | – | > 100 µM | – | > 100 | – | > 100 µM | – | > 100 µM | – | > 100 | – | > 100 µM
Oc1c(CCl)cc(Cl)cc1Cc1cc(Cl)cc(Cc2cc(Cl)cc(CCl)c2O)c1O | 3.59 | 15 µM | 2.7 | 10.1 | 1.99 | 13.4 µM | 2.21 | 9.39 µM | 4.28 µM | 37.1 µM | 2.2 | 7.29 | 7.14 | 26.7 µM | 4.67 µM | 29.3 µM | 3.89 | 21.4 | 3.08 µM | 91.7 µM
ClCCN(CCCl)c1ccc(OCc2ccccc2)cc1 | 8.54 | 34.8 µM | 5.28 | > 100 | 7.02 | > 100 µM | 4.4 | 28.7 µM | 3.16 µM | 27.6 µM | 5.44 | > 100 | 12.1 | 32.4 µM | 2.53 µM | 29.8 µM | 8.16 | 32.6 | 3.79 µM | 36.5 µM
CC[n+]1c(/C=C/c2ccc(N3CCCC3)cc2)cccc1/C=C/c1ccc(N2CCCC2)cc1 | 0.255 | 0.811 µM | 0.194 | 1.23 | – | > 100 µM | 0.0332 | 0.931 µM | 0.312 µM and 0.24 µM | 1.19 µM and 1.22 µM | 0.466 | 1.95 | 0.164 | 0.341 µM | 0.296 µM and 0.26 µM | 1.65 µM and 0.919 µM | 0.343 | 2.34 | 0.0072 µM and 0.0149 µM | 0.131 µM and 0.261 µM
COc1ccc(/C=C/C(=O)c2ccc(B(O)O)cc2)cc1O | 7.27 | 20.1 µM | 15 | 50.1 | 2.86 | > 100 µM | 13.5 | 50.9 µM | 6.21 µM | 28.9 µM | 26.8 | > 100 | 16.2 | 32 µM | 14.5 µM | > 76.7 µM | 2.11 | 5.5 | 3.27 µM | 23 µM
O=C(CSc1nc2ccc([N+](=O)[O-])cc2[nH]1)Nc1ccc([N+](=O)[O-])cc1 | 2.05 | 10.9 µM | 2.38 | 12.5 | 2.49 | > 100 µM | 1.59 | 12.9 µM | 3.51 µM | 15.6 µM | 2.46 | 8.19 | – | – | 2.94 µM | 14.2 µM | 2.66 | 12.7 | 1.27 µM | > 23.2 µM
